Legend:
[1] = molecular target: T1, Nuclear factor erythroid 2-related factor 2 (Homo sapiens, UniProt Q16236); experiment: Activation of Nrf2 in human U2OS cells co-expressing Keap1 assessed as induction of Nrf2 nuclear translocation incubated for 6 hrs by PathHunter chemiluminescence based analysis; type: cell-based
T1 sequence (Q16236 whole entry): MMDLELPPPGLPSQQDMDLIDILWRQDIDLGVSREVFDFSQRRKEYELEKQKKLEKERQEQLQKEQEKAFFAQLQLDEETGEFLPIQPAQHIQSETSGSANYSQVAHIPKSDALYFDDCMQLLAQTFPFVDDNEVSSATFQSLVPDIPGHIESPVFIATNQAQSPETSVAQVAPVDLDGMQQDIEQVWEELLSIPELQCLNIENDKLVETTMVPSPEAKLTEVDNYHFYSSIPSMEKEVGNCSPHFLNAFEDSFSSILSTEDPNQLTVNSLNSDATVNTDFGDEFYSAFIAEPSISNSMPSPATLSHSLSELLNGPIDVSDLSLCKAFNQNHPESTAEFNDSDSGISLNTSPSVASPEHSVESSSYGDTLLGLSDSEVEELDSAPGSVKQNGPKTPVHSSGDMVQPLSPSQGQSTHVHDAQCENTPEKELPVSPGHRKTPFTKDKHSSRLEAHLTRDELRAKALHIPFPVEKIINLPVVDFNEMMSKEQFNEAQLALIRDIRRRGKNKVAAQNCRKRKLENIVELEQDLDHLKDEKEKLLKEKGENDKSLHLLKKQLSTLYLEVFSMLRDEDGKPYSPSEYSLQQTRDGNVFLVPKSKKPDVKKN

[2] = Metabolic stability of the compound in rat plasma assessed as parent compound remaining measured after 30 mins; type: ADME, cell-free; settings: read-out: Stability
[3] = Metabolic stability of the compound in human liver microsomes assessed as parent compound remaining measured after 30 mins; type: ADME, Microsome; settings: read-out: Stability
[4] = molecular target: CYP2D6 (Homo sapiens, UniProt P10635); experiment: Inhibition of CYP2D6 (unknown origin) assessed as enzyme activity at 10 uM relative to control; type: ADME; design: scale not given: the % may be the effect or the level left; settings: read-out: Activity
[5] = molecular target: CYP2C9 (Homo sapiens, UniProt P11712); experiment: Inhibition of CYP2C9 (unknown origin) assessed as enzyme activity at 10 uM relative to control; type: ADME; design: scale not given: the % may be the effect or the level left; settings: read-out: Activity
[6] = Metabolic stability of the compound in mouse liver microsomes assessed as parent compound remaining measured after 30 mins; type: ADME, Microsome; settings: read-out: Stability
[7] = molecular target: CYP2C19 (Homo sapiens, UniProt P33261); experiment: Inhibition of CYP2C19 (unknown origin) assessed as enzyme activity at 10 uM relative to control; type: ADME; design: scale not given: the % may be the effect or the level left; settings: read-out: Activity
[8] = Metabolic stability of the compound in human plasma assessed as parent compound remaining measured after 30 mins; type: ADME, cell-free; settings: read-out: Stability
[9] = molecular target: T2, CYP1A2 (Homo sapiens, UniProt P05177); experiment: Inhibition of CYP1A2 (unknown origin) assessed as enzyme activity at 10 uM relative to control; type: ADME; design: scale not given: the % may be the effect or the level left; settings: read-out: Activity
T2 sequence (P05177 whole entry): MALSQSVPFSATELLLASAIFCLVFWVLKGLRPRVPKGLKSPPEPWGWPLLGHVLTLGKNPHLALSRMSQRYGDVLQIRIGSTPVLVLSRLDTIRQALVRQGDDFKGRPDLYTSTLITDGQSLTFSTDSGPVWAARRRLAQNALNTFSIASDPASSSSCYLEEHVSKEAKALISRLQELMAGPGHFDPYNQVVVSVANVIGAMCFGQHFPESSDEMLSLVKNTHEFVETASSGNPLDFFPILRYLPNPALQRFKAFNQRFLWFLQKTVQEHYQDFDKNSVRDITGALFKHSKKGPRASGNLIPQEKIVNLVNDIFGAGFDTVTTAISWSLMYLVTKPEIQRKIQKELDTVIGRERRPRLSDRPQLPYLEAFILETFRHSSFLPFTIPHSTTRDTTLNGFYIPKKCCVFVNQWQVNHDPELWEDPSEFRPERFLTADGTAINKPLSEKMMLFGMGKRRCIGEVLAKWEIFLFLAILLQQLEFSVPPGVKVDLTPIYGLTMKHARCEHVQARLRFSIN

[10] = molecular target: CYP3A4 (Homo sapiens, UniProt P08684); experiment: Inhibition of CYP3A4 (unknown origin) assessed as enzyme activity at 10 uM relative to control; type: ADME; design: scale not given: the % may be the effect or the level left; settings: read-out: Activity
Chain of CYP3A4 (P08684 whole entry): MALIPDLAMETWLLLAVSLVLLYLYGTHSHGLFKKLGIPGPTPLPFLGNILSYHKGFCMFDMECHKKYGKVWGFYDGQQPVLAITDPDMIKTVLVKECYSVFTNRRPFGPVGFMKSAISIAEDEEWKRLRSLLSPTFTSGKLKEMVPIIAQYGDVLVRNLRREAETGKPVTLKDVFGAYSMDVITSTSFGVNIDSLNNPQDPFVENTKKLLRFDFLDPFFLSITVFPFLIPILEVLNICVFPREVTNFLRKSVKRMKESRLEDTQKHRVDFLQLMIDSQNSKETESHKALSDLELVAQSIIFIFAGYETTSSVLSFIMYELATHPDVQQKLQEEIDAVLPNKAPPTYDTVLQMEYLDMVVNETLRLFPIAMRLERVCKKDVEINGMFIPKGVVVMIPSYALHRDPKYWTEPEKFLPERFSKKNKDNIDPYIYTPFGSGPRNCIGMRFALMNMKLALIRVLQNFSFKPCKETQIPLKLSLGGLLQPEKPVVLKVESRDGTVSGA

Chain of CYP2C19 (P33261 whole entry): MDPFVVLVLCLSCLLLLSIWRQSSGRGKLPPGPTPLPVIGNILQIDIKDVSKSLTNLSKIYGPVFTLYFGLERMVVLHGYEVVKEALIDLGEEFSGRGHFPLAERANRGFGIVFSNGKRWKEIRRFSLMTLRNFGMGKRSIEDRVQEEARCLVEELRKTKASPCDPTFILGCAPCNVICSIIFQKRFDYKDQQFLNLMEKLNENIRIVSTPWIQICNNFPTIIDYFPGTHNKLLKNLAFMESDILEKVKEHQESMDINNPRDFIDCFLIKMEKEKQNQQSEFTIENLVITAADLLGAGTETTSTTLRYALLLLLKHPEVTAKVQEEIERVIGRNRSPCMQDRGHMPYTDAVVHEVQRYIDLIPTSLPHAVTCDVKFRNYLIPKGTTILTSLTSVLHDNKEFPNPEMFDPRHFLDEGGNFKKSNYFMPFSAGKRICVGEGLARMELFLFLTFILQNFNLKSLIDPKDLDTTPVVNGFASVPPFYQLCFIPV
Chain of CYP2D6 (P10635 whole entry): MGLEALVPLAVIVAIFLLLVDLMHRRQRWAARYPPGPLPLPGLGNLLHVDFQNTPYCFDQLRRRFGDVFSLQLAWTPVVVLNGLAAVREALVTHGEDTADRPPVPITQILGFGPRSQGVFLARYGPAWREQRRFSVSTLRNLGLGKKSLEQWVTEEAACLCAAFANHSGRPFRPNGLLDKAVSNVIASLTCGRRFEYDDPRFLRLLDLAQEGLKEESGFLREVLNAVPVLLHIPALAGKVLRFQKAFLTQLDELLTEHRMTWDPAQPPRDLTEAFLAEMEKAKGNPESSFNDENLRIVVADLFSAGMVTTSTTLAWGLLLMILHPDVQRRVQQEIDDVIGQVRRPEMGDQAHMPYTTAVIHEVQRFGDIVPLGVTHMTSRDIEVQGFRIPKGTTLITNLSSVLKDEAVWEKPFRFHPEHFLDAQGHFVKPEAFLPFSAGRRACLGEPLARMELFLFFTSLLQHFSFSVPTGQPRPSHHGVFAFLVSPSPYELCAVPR
Chain of CYP2C9 (P11712 whole entry): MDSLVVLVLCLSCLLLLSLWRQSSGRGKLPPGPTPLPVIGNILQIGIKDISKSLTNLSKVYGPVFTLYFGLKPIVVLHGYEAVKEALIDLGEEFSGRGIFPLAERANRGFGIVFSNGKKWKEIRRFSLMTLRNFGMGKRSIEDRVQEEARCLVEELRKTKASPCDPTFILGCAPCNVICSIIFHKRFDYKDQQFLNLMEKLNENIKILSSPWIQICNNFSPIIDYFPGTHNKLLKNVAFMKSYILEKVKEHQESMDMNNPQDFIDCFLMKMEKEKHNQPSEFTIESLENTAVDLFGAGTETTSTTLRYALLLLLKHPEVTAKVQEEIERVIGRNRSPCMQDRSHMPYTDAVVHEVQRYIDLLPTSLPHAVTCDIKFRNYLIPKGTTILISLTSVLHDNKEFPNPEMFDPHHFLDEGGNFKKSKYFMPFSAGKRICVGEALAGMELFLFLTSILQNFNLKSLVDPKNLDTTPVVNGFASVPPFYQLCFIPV

| EC50 [1] [nM] | remaining at 0.5 h [2] [%] | remaining at 0.5 h [3] [%] | activity at 10 µM [4] [%] | activity at 10 µM [5] [%] | remaining at 0.5 h [6] [%] | activity at 10 µM [7] [%] | remaining at 0.5 h [8] [%] | activity at 10 µM [9] [%] | activity at 10 µM [10] [%] | SMILES |
| --- | --- | --- | --- | --- | --- | --- | --- | --- | --- | --- |
| 231 | 98.9 | 13.8 | 97.6 | > 99 | 4.4 | 7.7 | > 99 | 6.73 | 28 | COc1cccc(S(=O)(=O)/C=C/c2ccccc2Cl)n1 |
| 146 | 93.5 | 52.9 | 99.1 | 79.2 | 17.8 | 59.1 | 96.8 | 71.2 | 76 | COc1cccnc1S(=O)(=O)/C=C/c1ccccc1C(F)(F)F |
| 49 | 91.9 | 76.6 | 99.8 | > 99 | 61.4 | 30.2 | 99 | 81 | 91.5 | COc1ccnc(S(=O)(=O)/C=C/c2cccnc2Cl)c1 |
| 801 | 93 | 89.4 | 98.8 | 79.7 | 63.6 | 68.4 | 95.9 | 79.4 | 89.8 | COc1cccnc1S(=O)(=O)/C=C/c1ccccc1F |
| 76 | > 99 | 83.1 | 93.4 | 59.7 | 34.4 | 60.7 | 92.4 | 71.8 | 87.1 | COc1cccnc1S(=O)(=O)/C=C/c1ccccc1Cl |
| 107 | 84.1 | 87.8 | > 99 | 69.7 | 64.7 | 60.5 | 94 | 72.6 | 36.4 | COc1cccnc1S(=O)(=O)/C=C/c1ncccc1C(F)(F)F |
| 130 | > 99 | 9.5 | 100 | > 99 | 5.6 | 5.4 | > 99 | 46.1 | 58.8 | COc1ccc(S(=O)(=O)/C=C/c2ccccc2Cl)nc1 |

Continued, molecule first:

| SMILES | EC50 [1] [nM] | remaining at 0.5 h [2] [%] | remaining at 0.5 h [3] [%] | activity at 10 µM [4] [%] | activity at 10 µM [5] [%] | remaining at 0.5 h [6] [%] | activity at 10 µM [7] [%] | remaining at 0.5 h [8] [%] | activity at 10 µM [9] [%] | activity at 10 µM [10] [%] |
| --- | --- | --- | --- | --- | --- | --- | --- | --- | --- | --- |
| COc1ccc(S(=O)(=O)/C=C/c2ncccc2Cl)nc1 | 33 | 91.5 | 48.1 | > 99 | > 99 | 44 | 29 | 96.7 | 74.2 | 72.6 |
| COc1ccnc(S(=O)(=O)/C=C/c2cccc(Cl)c2)c1 | 824 | 94.7 | 54.6 | 97.2 | > 99 | 8.7 | 7 | > 99 | 63.4 | 38.2 |
| COc1ccnc(S(=O)(=O)/C=C/c2ccc(Cl)cn2)c1 | 1310 | 84.8 | 70.3 | 96.3 | > 99 | 67.6 | 10.7 | 91.1 | 33.3 | 95.1 |
| COc1ccnc(S(=O)(=O)/C=C/c2ccccc2C(F)(F)F)c1 | 115 | 95.3 | 58.5 | 96.3 | 38.2 | 1.6 | 14.9 | 99 | 33.8 | 39.8 |
| COc1ccnc(S(=O)(=O)/C=C/c2ccc(Cl)cc2)c1 | 1220 | > 99 | 37.8 | 98.5 | > 99 | 18.8 | 10.5 | > 99 | 49 | 85.8 |
| COc1ccc(S(=O)(=O)/C=C/c2ccccc2C(F)(F)F)nc1 | 245 | 94.7 | 31.7 | 100 | > 99 | 2.7 | 3.7 | 99 | 27.8 | 58 |
